Data from PMC6704710, “Preclinical evaluation of 3D185, a novel potent inhibitor of FGFR1/2/3 and CSF-1R, in FGFR-dependent and macrophage-dominant cancer models” (Journal of Experimental & Clinical Cancer Research : CR, 2019).

Assays:
[1] = target: T1, SGK3(h) (Homo sapiens, UniProt Q96BR1); assay: Eurofins kinase panel; type: biochemical; conditions: read-out: Inhibition rate (%)
T1 construct: purchased Eurofins (KinaseProfiler)
T1 sequence (Q96BR1 1-496): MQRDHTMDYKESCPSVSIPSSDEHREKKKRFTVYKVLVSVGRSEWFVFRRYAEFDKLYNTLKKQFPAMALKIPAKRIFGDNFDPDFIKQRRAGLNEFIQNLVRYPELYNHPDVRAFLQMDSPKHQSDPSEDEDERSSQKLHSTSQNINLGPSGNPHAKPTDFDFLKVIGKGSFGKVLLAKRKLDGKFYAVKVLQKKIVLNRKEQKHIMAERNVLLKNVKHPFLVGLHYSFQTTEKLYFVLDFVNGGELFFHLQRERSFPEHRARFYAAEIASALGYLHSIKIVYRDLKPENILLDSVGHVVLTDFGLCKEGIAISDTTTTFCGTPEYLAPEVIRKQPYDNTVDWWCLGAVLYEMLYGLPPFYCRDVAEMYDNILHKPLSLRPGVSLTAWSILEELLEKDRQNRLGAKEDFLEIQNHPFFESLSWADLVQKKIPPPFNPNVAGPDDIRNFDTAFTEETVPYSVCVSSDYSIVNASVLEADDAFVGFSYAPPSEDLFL

[2] = tested on: PBMC (CSF-1); assay: Macrophage survival (CCK-8); type: cell-based; conditions: Homo sapiens, 168 h, 7 days, mean ± SD
Procedure: Murine bone marrow and human monocytes were stimulated with CSF-1 for 7 days together with the indicated inhibitor, and cell viability was evaluated by the CCK-8 assay. The IC50 values are shown as the mean ± SD (nM) from two independent tests. B-E, To test the impact of 3D185 on the polarization of CSF-1-induced macrophages, murine bone marrow cells and human monocytes were induced to mature into macrophages with CSF-1 for 7 days and then stimulated with CSF-1, IL-4 and IL-13 for an additional 48 h. The expression of the markers MHC-II (b), CD86 (c), and CD206 (d) on induced murine macrophages and CD206 expression on induced human macrophages (e) were determined by flow cytometry, and the mean fluorescence intensity (MFI) was analyzed with FlowJo. Representative data from two independent experiments. f Murine bone marrow cells (left panel) and human monocytes (right panel) were induced to mature into macrophages with CSF-1 for 7 days and then stimulated with CSF-1, IL-4 and IL-13 and treated with vehicle or the indicated inhibitor for an additional 48 h. Then, all cells were collected to count viable cells by staining with trypan blue
Murine bone marrow-derived macrophages (BMDMs) and PBMCs were used for cell viability studies. […] Cell viability was measured using the CCK-8 assay. For IL-4/IL-13-induced macrophage survival analysis, viable cells were counted by trypan blue exclusion.

[3] = target: T2, FGFR2 (Homo sapiens, UniProt P21802); assay: Kinase inhibition assay (ELISA); type: biochemical; conditions: mean ± SD
T2 construct: purchased Eurofins (Fremont, United States)

[4] = target: T3, cKit(h) (Homo sapiens, UniProt P10721); assay: Eurofins kinase panel; type: biochemical; conditions: read-out: Inhibition rate (%)
T3 construct: purchased Eurofins (KinaseProfiler)
T3 sequence (P10721 26-976): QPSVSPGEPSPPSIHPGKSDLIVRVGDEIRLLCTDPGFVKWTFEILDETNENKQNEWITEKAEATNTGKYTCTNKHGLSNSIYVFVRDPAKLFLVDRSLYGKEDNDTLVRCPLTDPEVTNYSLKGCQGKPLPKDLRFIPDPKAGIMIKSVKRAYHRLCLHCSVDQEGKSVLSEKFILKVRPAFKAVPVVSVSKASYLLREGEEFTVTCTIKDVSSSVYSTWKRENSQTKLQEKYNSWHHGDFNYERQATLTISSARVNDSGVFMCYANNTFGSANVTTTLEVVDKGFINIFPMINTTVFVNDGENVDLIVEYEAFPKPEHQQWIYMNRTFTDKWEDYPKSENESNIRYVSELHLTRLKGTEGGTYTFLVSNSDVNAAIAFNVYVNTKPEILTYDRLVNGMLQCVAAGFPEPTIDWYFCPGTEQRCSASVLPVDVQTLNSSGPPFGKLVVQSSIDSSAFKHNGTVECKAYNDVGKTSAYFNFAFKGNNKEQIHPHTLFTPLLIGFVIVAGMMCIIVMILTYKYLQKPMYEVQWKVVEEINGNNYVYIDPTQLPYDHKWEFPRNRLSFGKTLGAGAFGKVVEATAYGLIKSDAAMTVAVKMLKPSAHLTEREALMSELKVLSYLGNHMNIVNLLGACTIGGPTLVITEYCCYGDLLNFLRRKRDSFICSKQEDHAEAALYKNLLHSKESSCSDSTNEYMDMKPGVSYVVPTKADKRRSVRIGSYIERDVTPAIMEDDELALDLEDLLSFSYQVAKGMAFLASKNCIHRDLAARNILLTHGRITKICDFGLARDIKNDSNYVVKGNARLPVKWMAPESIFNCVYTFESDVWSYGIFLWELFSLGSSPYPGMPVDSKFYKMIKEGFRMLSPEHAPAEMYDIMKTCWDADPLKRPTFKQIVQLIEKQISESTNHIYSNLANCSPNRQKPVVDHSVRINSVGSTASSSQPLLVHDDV

[5] = target: T4, PDGFRα (Homo sapiens, UniProt P16234); assay: Kinase inhibition assay (ELISA); type: biochemical
T4 construct: purchased Eurofins (Fremont, United States)
Procedure: (§1) Active FGFR1–4, VEGFR1, KDR, VEGFR3, PDGFRα and PDGFRβ proteins were purchased from Eurofins (Fremont, United States), and kinase activity was assessed using ELISA, as previously reported. […]. Increasing concentrations of ATP were diluted for the kinase reaction in the ATP competition assay. CSF-1R kinase activity was analyzed using the Z’-LYTE™ Kinase Assay Kit (Thermo Fisher, United States). The assay formats are described in the SelectScreen Kinase Profiling Service Zlyte protocol. IC50 values were calculated by dose-response curve fitting using Prism (Graph Pad).

[6] = target: T5, PDGFRβ (Homo sapiens, UniProt P09619); assay: Kinase inhibition assay (ELISA); type: biochemical
T5 construct: purchased Eurofins (Fremont, United States)
Procedure: as §1

[7] = target: T6, VEGFR1 (Homo sapiens, UniProt P17948); assay: Kinase inhibition assay (ELISA); type: biochemical
T6 construct: purchased Eurofins (Fremont, United States)
T6 sequence (P17948 27-1338): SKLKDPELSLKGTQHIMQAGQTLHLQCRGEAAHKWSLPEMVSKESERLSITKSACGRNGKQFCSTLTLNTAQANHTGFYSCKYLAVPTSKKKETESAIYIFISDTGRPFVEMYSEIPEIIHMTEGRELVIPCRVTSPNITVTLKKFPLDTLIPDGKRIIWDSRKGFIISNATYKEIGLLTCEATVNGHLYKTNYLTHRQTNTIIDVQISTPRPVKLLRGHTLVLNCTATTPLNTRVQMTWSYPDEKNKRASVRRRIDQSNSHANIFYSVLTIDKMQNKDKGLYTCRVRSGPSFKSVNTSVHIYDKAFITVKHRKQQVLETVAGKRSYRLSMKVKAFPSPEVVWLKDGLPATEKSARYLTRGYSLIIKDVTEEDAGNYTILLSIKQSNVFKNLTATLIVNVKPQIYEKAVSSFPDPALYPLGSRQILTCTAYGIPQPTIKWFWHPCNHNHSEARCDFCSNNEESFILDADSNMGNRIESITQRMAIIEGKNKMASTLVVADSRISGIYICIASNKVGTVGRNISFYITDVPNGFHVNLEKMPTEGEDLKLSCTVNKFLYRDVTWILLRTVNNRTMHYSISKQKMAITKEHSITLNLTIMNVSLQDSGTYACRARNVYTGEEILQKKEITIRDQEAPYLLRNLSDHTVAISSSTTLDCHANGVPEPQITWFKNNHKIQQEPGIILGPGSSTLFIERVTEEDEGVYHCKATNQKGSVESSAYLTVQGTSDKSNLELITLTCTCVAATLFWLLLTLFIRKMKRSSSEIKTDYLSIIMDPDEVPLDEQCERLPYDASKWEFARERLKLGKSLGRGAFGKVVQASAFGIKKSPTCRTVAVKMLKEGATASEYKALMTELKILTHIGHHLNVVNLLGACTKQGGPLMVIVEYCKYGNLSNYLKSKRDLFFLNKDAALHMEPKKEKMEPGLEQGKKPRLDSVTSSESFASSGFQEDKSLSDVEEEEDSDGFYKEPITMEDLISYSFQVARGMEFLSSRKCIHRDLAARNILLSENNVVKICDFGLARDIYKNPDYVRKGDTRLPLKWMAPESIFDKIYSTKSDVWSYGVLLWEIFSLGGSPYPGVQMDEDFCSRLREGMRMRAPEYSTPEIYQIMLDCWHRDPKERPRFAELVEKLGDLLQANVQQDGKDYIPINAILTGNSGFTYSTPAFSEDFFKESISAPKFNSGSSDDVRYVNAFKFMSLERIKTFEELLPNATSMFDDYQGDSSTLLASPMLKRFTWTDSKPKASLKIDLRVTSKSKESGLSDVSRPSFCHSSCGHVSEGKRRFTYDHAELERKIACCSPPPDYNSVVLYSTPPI
Procedure: as §1

[8] = target: T7, FGFR1 (Homo sapiens, UniProt P11362); assay: Kinase inhibition assay (ELISA); type: biochemical
T7 construct: purchased Eurofins (Fremont, United States)
T7 sequence (P11362 22-822): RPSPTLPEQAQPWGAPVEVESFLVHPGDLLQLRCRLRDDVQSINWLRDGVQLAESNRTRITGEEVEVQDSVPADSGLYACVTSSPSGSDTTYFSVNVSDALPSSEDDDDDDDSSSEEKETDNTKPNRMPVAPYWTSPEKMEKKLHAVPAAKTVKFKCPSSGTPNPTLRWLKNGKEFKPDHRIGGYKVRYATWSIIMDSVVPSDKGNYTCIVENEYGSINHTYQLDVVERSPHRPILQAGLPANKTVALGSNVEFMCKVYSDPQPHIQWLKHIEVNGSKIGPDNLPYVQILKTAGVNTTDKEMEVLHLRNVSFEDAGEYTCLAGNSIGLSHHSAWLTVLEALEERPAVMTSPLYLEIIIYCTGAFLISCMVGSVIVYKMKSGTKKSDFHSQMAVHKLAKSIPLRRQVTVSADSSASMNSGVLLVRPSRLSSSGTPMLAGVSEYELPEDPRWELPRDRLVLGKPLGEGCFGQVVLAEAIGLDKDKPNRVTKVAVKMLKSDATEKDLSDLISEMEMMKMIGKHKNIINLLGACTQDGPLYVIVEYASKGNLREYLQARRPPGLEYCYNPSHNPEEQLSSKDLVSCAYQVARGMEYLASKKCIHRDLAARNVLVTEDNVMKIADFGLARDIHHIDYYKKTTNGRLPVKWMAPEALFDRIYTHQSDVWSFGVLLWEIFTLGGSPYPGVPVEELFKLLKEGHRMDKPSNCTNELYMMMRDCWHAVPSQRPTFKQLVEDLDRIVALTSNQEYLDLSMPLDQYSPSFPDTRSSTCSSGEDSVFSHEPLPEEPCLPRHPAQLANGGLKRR
Procedure: as §1

[9] = target: T8, VEGFR3 (Homo sapiens, UniProt P35916); assay: Kinase inhibition assay (ELISA); type: biochemical
T8 construct: purchased Eurofins (Fremont, United States)
Procedure: as §1

[10] = target: T9, PDHK4(h) (Homo sapiens, UniProt Q16654); assay: Eurofins kinase panel; type: biochemical; conditions: read-out: Inhibition rate (%)
T9 construct: purchased Eurofins (KinaseProfiler)
T9 sequence (Q16654 whole entry): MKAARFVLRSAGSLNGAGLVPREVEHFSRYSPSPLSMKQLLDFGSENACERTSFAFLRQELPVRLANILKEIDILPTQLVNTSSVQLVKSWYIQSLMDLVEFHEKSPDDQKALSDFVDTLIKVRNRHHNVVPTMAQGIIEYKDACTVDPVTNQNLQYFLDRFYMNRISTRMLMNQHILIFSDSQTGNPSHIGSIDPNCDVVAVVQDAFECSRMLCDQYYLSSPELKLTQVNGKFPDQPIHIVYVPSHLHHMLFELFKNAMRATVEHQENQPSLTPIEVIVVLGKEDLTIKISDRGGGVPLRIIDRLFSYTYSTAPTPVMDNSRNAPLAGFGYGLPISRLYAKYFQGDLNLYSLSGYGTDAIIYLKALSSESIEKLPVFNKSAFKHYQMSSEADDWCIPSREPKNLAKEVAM

[11] = target: T10, CaMKI(h) (Homo sapiens, UniProt Q14012); assay: Eurofins kinase panel; type: biochemical; conditions: read-out: Inhibition rate (%)
T10 construct: purchased Eurofins (KinaseProfiler)
T10 sequence (Q14012 whole entry): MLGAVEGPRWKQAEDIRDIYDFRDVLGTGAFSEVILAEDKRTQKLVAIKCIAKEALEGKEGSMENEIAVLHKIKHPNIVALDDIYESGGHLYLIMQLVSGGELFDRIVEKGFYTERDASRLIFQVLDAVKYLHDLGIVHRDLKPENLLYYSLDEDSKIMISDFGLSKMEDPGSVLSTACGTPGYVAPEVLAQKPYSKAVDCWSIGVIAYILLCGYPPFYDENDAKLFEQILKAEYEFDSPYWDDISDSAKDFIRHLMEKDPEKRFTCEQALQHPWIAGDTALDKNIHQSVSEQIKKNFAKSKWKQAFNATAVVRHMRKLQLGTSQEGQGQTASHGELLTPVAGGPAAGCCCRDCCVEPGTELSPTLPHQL

[12] = target: T11, CDK2/cyclinE(h) (Homo sapiens, UniProt P24941); assay: Eurofins kinase panel; type: biochemical; conditions: read-out: Inhibition rate (%)
T11 construct: purchased Eurofins (KinaseProfiler)

[13] = target: T12, HIPK1(h) (Homo sapiens, UniProt Q86Z02); assay: Eurofins kinase panel; type: biochemical; conditions: read-out: Inhibition rate (%)
T12 construct: purchased Eurofins (KinaseProfiler)
T12 sequence (Q86Z02 whole entry): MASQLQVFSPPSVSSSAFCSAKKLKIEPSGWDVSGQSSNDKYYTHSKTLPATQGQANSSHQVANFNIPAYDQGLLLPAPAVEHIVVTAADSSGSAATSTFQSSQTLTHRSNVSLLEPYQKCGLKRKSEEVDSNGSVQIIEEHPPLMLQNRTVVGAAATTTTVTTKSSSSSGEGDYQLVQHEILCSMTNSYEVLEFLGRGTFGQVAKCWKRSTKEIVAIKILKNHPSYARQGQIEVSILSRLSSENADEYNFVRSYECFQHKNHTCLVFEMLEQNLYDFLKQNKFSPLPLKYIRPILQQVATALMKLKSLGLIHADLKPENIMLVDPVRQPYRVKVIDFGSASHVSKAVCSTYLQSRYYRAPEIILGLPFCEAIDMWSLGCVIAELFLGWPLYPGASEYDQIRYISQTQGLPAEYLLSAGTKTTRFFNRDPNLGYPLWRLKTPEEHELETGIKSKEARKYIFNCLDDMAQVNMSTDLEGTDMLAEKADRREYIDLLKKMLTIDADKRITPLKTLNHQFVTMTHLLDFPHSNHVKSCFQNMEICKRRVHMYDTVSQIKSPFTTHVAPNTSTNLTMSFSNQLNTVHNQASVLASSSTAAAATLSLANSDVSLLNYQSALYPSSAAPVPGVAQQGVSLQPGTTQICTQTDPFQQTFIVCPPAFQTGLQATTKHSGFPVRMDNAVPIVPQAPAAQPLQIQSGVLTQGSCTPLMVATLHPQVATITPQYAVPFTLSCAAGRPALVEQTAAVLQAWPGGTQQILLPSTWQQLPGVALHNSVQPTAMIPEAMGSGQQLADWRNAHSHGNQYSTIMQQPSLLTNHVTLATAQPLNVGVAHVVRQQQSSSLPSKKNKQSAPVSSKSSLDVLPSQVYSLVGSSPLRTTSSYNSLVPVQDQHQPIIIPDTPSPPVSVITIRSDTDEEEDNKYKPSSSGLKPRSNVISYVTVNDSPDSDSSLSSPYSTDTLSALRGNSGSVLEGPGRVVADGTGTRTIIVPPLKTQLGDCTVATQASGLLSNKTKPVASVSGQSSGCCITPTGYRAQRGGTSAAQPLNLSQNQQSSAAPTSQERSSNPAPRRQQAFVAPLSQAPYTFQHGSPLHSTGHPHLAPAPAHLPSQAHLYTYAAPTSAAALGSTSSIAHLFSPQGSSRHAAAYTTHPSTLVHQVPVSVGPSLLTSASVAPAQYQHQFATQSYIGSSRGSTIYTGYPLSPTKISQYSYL

With `COc1cc(OC)c(Cl)c(-c2ccc3c(NC(=O)c4ccc(N5CCNC(C)(C)C5)cc4)n[nH]c3n2)c1Cl` [3D185] the inhibition at 0.01 µM ([1]; 10 nM) was 3%, the inhibition at 0.1 µM ([1]; 100 nM) was 2% and the inhibition at 1 µM ([1]; 1000 nM) was 14%. The IC50 [2] was 118 nM, the IC50 [3] was 1.3 nM and the inhibition at 0.01 µM ([4]; 10 nM) was 19%. The inhibition at 0.1 µM ([4]; 100 nM) was 35%, the inhibition at 1 µM ([4]; 1000 nM) was 76% and the IC50 [5] was over 1000 nM. For the same compound, the IC50 [6] was over 1000 nM, the IC50 [7] was over 1000 nM and the mode of inhibition ([8]; ATP competition assay) was “ATP-competitive inhibitor”. The “selectivity for FGFR over PDGFRα, PDGFRβ, VEGFR1 and VEGFR3” value ([8]; kinase assays) was over 2000 fold, the IC50 ([8]; mean ± SD) was 0.5 nM and the IC50 [9] was over 1000 nM. For the same compound, the inhibition at 0.01 µM ([10]; 10 nM) was -2%, the inhibition at 0.1 µM ([10]; 100 nM) was -2% and the inhibition at 1 µM ([10]; 1000 nM) was 0%. It also gave an inhibition at 0.01 µM ([11]; 10 nM) of 11%, an inhibition at 0.1 µM ([11]; 100 nM) of 14% and an inhibition at 1 µM ([11]; 1000 nM) of 64%. For the same compound, the inhibition at 0.01 µM ([12]; 10 nM) was -5%, the inhibition at 0.1 µM ([12]; 100 nM) was 2% and the inhibition at 1 µM ([12]; 1000 nM) was 10%. For the same compound, the inhibition at 0.01 µM ([13]; 10 nM) was -3%, the inhibition at 0.1 µM ([13]; 100 nM) was 4% and the inhibition at 1 µM ([13]; 1000 nM) was 10%.
